From patent publication US11434212B2, “Bicyclic compound as a caspase inhibitor” (CHIA TAI TIANQING PHARMACEUTICAL GROUP CO., LTD., priority 2017, dated 2022)
Entries after “also recorded” stand apart in the source; their conditions may differ. Values belong to the molecule of their own block, whether it stands above or below them.

Key:
[1] = system: CCl4-induced chronic liver fibrosis model; assay: Pharmacodynamic study in CCl4-induced chronic liver fibrosis model; format: in vivo, male C57BL/6 mice; design: Total score of liver injury / Ballooning change score: scale not given here; details: for Ballooning change score / Inflammatory cell infiltration / Percentage of liver fibrosis / Total score of liver injury: p.o., bid, 28 days, mean ± sem
Procedure: The therapeutic effects of the test compound IDN-6556 and the compound of Example 1 in the CCl4-induced chronic liver fibrosis model of male C57BL/6 mice were tested.
Male C57BL/6 mice were randomly divided into 7 groups: pseudo model group (group 1), model group (group 2, solvent p.o., q.d), IDN-6556 (group 3, 3 mg/kg, p.o., bid), IDN-6556 (group 4, 10 mg/kg, p.o., bid), Example 1 (group 5, 3 mg/kg, p.o., bid), Example 1 (group 6, 10 mg/kg, p.o., bid)), Example 1 (group 7, 20 mg/kg, p.o., bid). CCl4 was formulated into a CCl4-olive oil mixed solution according to the doses by using olive oil, modeling is performed by orally administration three times a week for 4 weeks; and the pseudo model group was orally administered with the same volume of olive oil alone. Compounds were orally administrated from the day of modeling, twice a day for 28 days, while the pseudo model group and the model group were orally administered with an equal volume of drug solvent. On the next day after the last administration, the animals were fasted for 6 hours, followed by euthanizing, and the livers were collected. Liver tissues were fixed in 10% formalin solution for histopathological analysis.

[2] = Mouse pharmacokinetic study in plasma and liver after oral administration; format: in vivo, male C57BL/6J mice
Source text: This experiment intended to investigate the pharmacokinetics in plasma and liver of male C57BL/6J mice after oral administration of the compounds.
Mice were randomly divided into three groups (3 male mice per group). The compound was formulated into the specified formulation. Oral formulations may be clear or uniform suspensions. Animals were intragastrically administered with a given dose of the preparation, respectively.
Whole blood samples were collected from animals through jugular vein puncture at 3 time points of 30 minutes, 2 hours, and 6 hours after administration, approximately 25 μL per sample; while the liver was collected at each time point.
The plasma samples were added to centrifuge tubes containing anticoagulant, and centrifuged at 4° C., 3000 g for 15 min, and the supernatant plasma was taken and quickly frozen on dry ice and then stored in a refrigerator at −70±10° C. until LC-MS/MS analysis was performed.
The blood outside the liver was sopped up with absorbent paper, and the weight of the liver was weighed, and then placed in liquid nitrogen to freeze. MeOH/15 mM PBS (1:2) at a volume-weight ratio of 1:5 was added thereto, and then the homogenization was performed at 14000 rpm for 2 minutes. It was then stored in a refrigerator at −70±10° C. until LC-MS/MS analysis was performed.
The plasma drug concentration data for the compounds were processed with the non-compartment model using WinNonlin™ Version 6.3.0 (Pharsight, Mountain View, Calif.) pharmacokinetic software. The maximal concentration (Cmax), maximal concentration time (Tmax) and quantitative end time were directly obtained from the plasma concentration-time chart.
The following pharmacokinetic parameters were calculated by using logarithmic linear trapezoidal method: elimination phase half-life (T1/2); the in vivo mean residence time of the drug from point 0 to the last time point (MRT0-last); the in vivo mean residence time of the drug from point 0 to infinite time (MRT0-ifn); the area under time-plasma concentration curve from point 0 to the last time point (AUC0-last); the area under time-plasma concentration curve from point 0 to infinite time (AUC0-inf).
For individual plasma concentrations less than BQL, the one occurred before Tmax was calculated as 0, and the one occurred after Tmax was directly excluded. All parameters and ratios were reported in the forms of three significant digits.
The pharmacokinetic parameters of this experiment were calculated according to the theoretical blood collection times and the theoretical administration concentrations in the protocol. The deviations between the actual administration concentrations and the theoretical concentrations were within the range of ±20%. The deviations between the actual blood collection times and the theoretical blood collection times were in conformity with the relevant SOP (the points within 1 hour after administration were within the range of ±1 min, and the others were within 5% of the theoretical time).

Caspase-1 = molecular target: T1, Caspase-1 (Homo sapiens, UniProt P29466); assay: In vitro inhibitory activity on Caspase-1 (BioVision Caspase-1 Inhibitor Screening Kit); format: biochemical; details: fluorogenic substrate 50 μM; test concentrations 1000 nM to 0.32 nM
T1 construct: purchased BioVision K151-100
T1 sequence (P29466 120-297 limits assumed): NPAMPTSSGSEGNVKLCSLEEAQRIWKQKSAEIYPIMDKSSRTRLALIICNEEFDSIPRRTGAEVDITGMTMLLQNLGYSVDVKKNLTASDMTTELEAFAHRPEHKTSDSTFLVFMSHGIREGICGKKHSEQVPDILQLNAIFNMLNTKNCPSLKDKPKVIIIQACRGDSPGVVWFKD
T1 sequence (P29466 317-404 limits assumed): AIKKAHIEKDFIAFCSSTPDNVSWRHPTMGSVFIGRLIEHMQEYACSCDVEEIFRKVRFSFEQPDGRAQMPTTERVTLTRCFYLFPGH
Procedure: (§1) Caspase Inhibitor Screening Kit for BioVision was used in this experiment to test the inhibitory activity of the test compounds on Caspase.
Caspase-1 Inhibitor Screening Kit (BioVision #K151-100)
(§2) Note: Each caspase enzymatic experiment uses the reagents in corresponding kit thereof. Each enzyme was dissolved in 550 μl of the corresponding 2× reaction buffer, sub-packed and stored at −80° C., respectively.
(§3) 1) The compound was diluted to a 200*test concentration with DMSO via the multiple dilution, then to a 2*test concentration with ddH2O, and added to a 384-well experimental plate at 12.5 μl per well. Test compounds and control compounds were tested at 6 concentration points, test concentrations ranging from 1000 nM to 0.32 nM. The ddH2O containing 1% DMSO was added to the 0% inhibition control well, and a high concentration of the control compound was added to the 100% inhibition control well (final concentration: 5 μM).
(§4) 2) 2× reaction buffer containing 10 mM DTT was prepared. The enzyme caspase stock solution was diluted 5-fold with 2× reaction buffer containing 10 mM DTT and added to a 384-well experimental plate at 6.25 μl per well. After being mixed, the enzyme and compounds were incubated at 37° C. for 30 minutes.
(§5) 3) The fluorogenic substrate of the enzyme caspase was diluted 5-fold with 2× reaction buffer containing 10 mM DTT, and then added to a 384-well experimental plate at 6.25 μl per well. The total reaction volume was 25 μl, the final concentration of the substrate was 50 μM, and the final concentration of DMSO was 0.5%. After the substrate was added, the 384-well experimental plate was incubated at 37° C. for 30 minutes.
(§6) 4) The fluorescence intensity (excitation light wavelength was 400 nm, emission light wavelength was 505 nm) was measured by using a multi-function microplate reader. Fluorescence intensity was used to calculate the inhibitory effect of the compounds on Caspase. GraphPad Prism software was used for fitting compound inhibition curves and calculating IC50 values.

Caspase-8 = molecular target: T2, Caspase-8 (Homo sapiens, UniProt Q14790); assay: In vitro inhibitory activity on Caspase-8 (BioVision Caspase-8 Inhibitor Screening Kit); format: biochemical; details: fluorogenic substrate 50 μM; test concentrations 1000 nM to 0.32 nM
T2 construct: purchased BioVision K158-100
Procedure: as §1
Caspase-8 Inhibitor Screening Kit (BioVision #K158-100)
as §2, §3, §4, §5, §6

Caspase-3 = molecular target: T3, Caspase-3 (Homo sapiens, UniProt P42574); assay: In vitro inhibitory activity on Caspase-3 (BioVision Caspase-3 Inhibitor Screening Kit); format: biochemical; details: fluorogenic substrate 50 μM; test concentrations 1000 nM to 0.32 nM
T3 construct: purchased BioVision K153-100
T3 sequence (P42574 29-175 limits assumed): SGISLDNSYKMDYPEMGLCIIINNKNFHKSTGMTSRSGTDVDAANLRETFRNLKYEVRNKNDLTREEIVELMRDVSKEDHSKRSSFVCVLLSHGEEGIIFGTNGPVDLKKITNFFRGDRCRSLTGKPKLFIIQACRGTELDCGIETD
T3 sequence (P42574 176-277 limits assumed): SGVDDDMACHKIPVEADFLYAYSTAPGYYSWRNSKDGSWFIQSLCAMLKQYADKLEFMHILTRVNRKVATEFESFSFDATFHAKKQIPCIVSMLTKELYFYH
Procedure: as §1
Caspase-3 Inhibitor Screening Kit (BioVision #K153-100)
as §2, §3, §4, §5, §6

[3] = different doses, oral twice a day for 28 days, vs model group
[4] = oral administration, 0.5-6 h samples

T2 sequence (Q14790 217-374 limits assumed): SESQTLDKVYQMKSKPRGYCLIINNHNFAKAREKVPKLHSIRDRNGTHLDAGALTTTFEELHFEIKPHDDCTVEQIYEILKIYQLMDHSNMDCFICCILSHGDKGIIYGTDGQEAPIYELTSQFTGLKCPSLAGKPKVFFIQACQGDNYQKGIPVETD
T2 sequence (Q14790 385-479 limits assumed): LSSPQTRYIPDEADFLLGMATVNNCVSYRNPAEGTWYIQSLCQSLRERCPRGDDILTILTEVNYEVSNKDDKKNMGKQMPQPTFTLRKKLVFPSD

Compound: C[C@H](NC(=O)c1cc(-c2ccccc2Cl)on1)C(=O)N[C@@H](CC(=O)O)C(=O)COc1c(F)c(F)cc(F)c1F [Example 1, (S)-3-((S)-2-(5-(2-chlorophenyl)isoxazol-3-carboxamido)propionamido)-4-oxo-5-(2,3,5,6-tetrafluorophenoxy)pentanoic Acid]
Ballooning change score ([1]; 3 mg/kg): 0.00 ± 0.00 | Inflammatory cell infiltration ([1]; 3 mg/kg): 1.13 ± 0.06 | Percentage of liver fibrosis ([1]; 3 mg/kg): 1.61 ± 0.05^$$ % | Total score of liver injury ([1]; 3 mg/kg): 1.13 ± 0.06 | Ballooning change score ([1]; 10 mg/kg): 0.00 ± 0.00 | Inflammatory cell infiltration ([1]; 10 mg/kg): 1.15 ± 0.07 | Percentage of liver fibrosis ([1]; 10 mg/kg): 1.62 ± 0.07^$ % | Total score of liver injury ([1]; 10 mg/kg): 1.20 ± 0.07 | Ballooning change score ([1]; 20 mg/kg): 0.00 ± 0.00 | Inflammatory cell infiltration ([1]; 20 mg/kg): 1.10 ± 0.04 | Percentage of liver fibrosis ([1]; 20 mg/kg): 1.69 ± 0.10% | Total score of liver injury ([1]; 20 mg/kg): 1.12 ± 0.04 | Effect on CCl4-induced liver tissue damage (in words) [1, 3]: significantly improve; also recorded: significantly inhibit | Inhibitory effect on liver fibrosis (in words) [1, 3]: significantly inhibited; also recorded: significant inhibitory effect | Liver drug concentration ([2]; 0.5 h after oral (intragastric) administration): 46440 nmol/kg | Liver drug concentration ([2]; 2 h after oral (intragastric) administration): 3126 nmol/kg | Liver drug concentration ([2]; 6 h after oral (intragastric) administration): 3252 nmol/kg | concentration at 0.5 h ([2]; male, C57BL/6J, plasma, 0.5 h after oral (intragastric) administration, read-out: Plasma drug concentration): 2520 nM | concentration at 2 h ([2]; male, C57BL/6J, plasma, 2 h after oral (intragastric) administration, read-out: Plasma drug concentration): 112 nM | concentration at 6 h ([2]; male, C57BL/6J, plasma, 6 h after oral (intragastric) administration, read-out: Plasma drug concentration): 12.8 nM | Liver exposure compared to IDN-6556 ([2]; oral administration): about 5 times | liver drug-time curve (area) [2, 4]: 48.442 µM·h | plasma drug-time curve (area) [2, 4]: 1.795 µM·h

Compound: C[C@H](NC(=O)c1ncc(-c2ccccc2)s1)C(=O)N[C@@H](CC(=O)O)C(=O)COc1c(F)c(F)cc(F)c1F [Example 2]
IC50 (Caspase-1): 5.3 nM | IC50 (Caspase-8): 24.6 nM | IC50 (Caspase-3): 29.6 nM

Compound: C[C@H](NC(=O)c1cc(-c2ccc(Cl)cc2)on1)C(=O)N[C@@H](CC(=O)O)C(=O)COc1c(F)c(F)cc(F)c1F [Example 6]
IC50 (Caspase-1): 6 nM | IC50 (Caspase-8): 19.9 nM | IC50 (Caspase-3): 24.5 nM

Next, values leading:

IC50 (Caspase-1): 4.8 nM | IC50 (Caspase-8): 25.9 nM | IC50 (Caspase-3): 24 nM
Compound: C[C@H](NC(=O)c1c[nH]c(-c2ccccc2)n1)C(=O)N[C@@H](CC(=O)O)C(=O)COc1c(F)c(F)cc(F)c1F [Example 3]

IC50 (Caspase-1): 4.1 nM | IC50 (Caspase-8): 11.7 nM | IC50 (Caspase-3): 11.4 nM
Compound: C[C@H](NC(=O)c1cc(-c2ccccc2)n[nH]1)C(=O)N[C@@H](CC(=O)O)C(=O)COc1c(F)c(F)cc(F)c1F [Example 4]

IC50 (Caspase-1): 3.9 nM | IC50 (Caspase-8): 16.8 nM | IC50 (Caspase-3): 13.7 nM
Compound: C[C@H](NC(=O)c1cc(-c2ccccc2F)n[nH]1)C(=O)N[C@@H](CC(=O)O)C(=O)COc1c(F)c(F)cc(F)c1F [Example 5]
